Data reported in US20180282818A1, “Therapeutic Cancer Treatments Based on TP53 Gene Mutations” (The Wistar Institute of Anatomy and Biology, priority 2015, published 2018).

Legend:
Type in all cases: cell-based
S47 cells = experiment: Resazurin cytotoxicity screening, S47 cells; conditions: for EC50: S47 cells, 72 hours, resazurin fluorescence, normalized to doxorubicin and DMSO; for Fold-resistant, S47 / Fold-sensitive, S47: S47 versus WT EC50
Protocol: (§1) The screening methods were performed as follows. S47 and wild type cells were plated at a density of 750 cells/well in a total volume of 50 μL in 384 well Greiner microplates. The cells were allowed to attach overnight at 37° C. and then dosed with 50 nL of compound serially diluted in DMSO. Following compound addition, the assay plates were incubated at 37° C. for 72 hours, followed by the addition of 5 μL of […] Resazurin. The plates were incubated at 37° C. for 8-10 hours and then fluorescence was measured using a Perkin Elmer Envision plate reader (excitation at 530-560 nm, emission at 590 nm). Raw fluorescent counts were uploaded into Spotfire and normalized to doxorubicin (positive control) and DMSO (negative control) treated wells (n=12/plate). EC50 values were calculated by applying a logistic regression curve fit and expressed as μM compound that was effective in killing 50% of the cell population at 72 hours.

wild type cells = experiment: Resazurin cytotoxicity screening, wild type cells; conditions: 72 hours, resazurin fluorescence, normalized to doxorubicin and DMSO, read-out: WT EC50
Protocol: as §1

S47 tumor cells = experiment: Sensitivity of E1A/Ras-transformed S47 tumor cells compared to WT cells; conditions: S47 and WT cells expressing E1A/Ras
Protocol: S47 and WT cells expressing E1A/Ras were analyzed.
A tumorigenic (transformed) version of WT and S47 cells may be created as follows. WT and S47 cells were transfected with two oncogenes (E1A and Ras).

SMILES | EC50 (S47 cells) [nM] | Fold-resistant, S47 (S47 cells) | EC50 (wild type cells) [nM] | Sensitivity of S47 tumor cells compared to WT cells (S47 tumor cells) | Fold-sensitive, S47 (S47 cells)
Cc1cn(-c2cc(NC(=O)c3ccc(C)c(Nc4nccc(-c5cccnc5)n4)c3)cc(C(F)(F)F)c2)cn1 [AMN107] | > 10000 | 28 | 353 |  | 
C[C@@H]1COCCN1c1cc(C2([S@](C)(=N)=O)CC2)nc(-c2cc[nH]c3nccc2-3)n1 [AZD6738] | > 10000 | 26 | 377 |  | 
N.N.[Cl][Pt][Cl] [Cisplatin, (SP-4-2)-diamminedichloroplatinum(II)] | 790 | 2.3 | 348 | more sensitive | 
COc1cccc2c1C(=O)c1c(O)c3c(c(O)c1C2=O)C[C@@](O)(C(=O)CO)C[C@@H]3O[C@H]1C[C@H](N)[C@H](O)[C@H](C)O1 [Doxorubicin] | 292 | 2 | 146 |  | 
CS(=O)(=O)N1CCN(Cc2cc3nc(-c4cccc5[nH]ncc45)nc(N4CCOCC4)c3s2)CC1 [GDC0941, 2-(1H-indazol-4-yl)-6-((4-(methylsulfonyl)piperazin-1-yl)methyl)-4-morpholinothieno[3,2-d]pyrimidine] | 12 |  | 28 |  | 2.33
COc1ncc(-c2ccc3nccc(-c4ccnnc4)c3c2)cc1NS(=O)(=O)c1ccc(F)cc1F [GSK2126458, 2,4-difluoro-N-(2-methoxy-5-(4-(pyridazin-4-yl)quinolin-6-yl)pyridin-3-yl)benzenesulfonamide] | 0.46 |  | 1.5 |  | 3.26
CC(C)n1nc(-c2ccc3oc(N)nc3c2)c2c(N)ncnc21 [INK128, 5-(4-amino-1-isopropyl-1H-pyrazolo[3 ,4-d]pyrimidin-3-yl)benzo[d]oxazol-2-amine] | 9.5 |  | 14.5 |  | 1.5
Cc1[nH]c2ccccc2c1CCNCc1ccc(/C=C/C(=O)NO)cc1 [LBH589] | 6.6 | 2 | 3.2 |  | 
COc1cccc2cc(-c3nc([C@H]4CC[C@H](C(=O)O)CC4)n4ncnc(N)c34)[nH]c12 [OSI027, trans-4-[4-amino-5-(7-methoxy-1H-indol-2-yl)imidazo[5,1-f][1,2,4]triazin-7-yl]cyclohexanecarboxylic acid] | 173 |  | 745 | more sensitive | 4.3
CC[C@@]1(O)C(=O)OCc2c1cc1n(c2=O)Cc2cc3ccccc3nc2-1 [camptothecin] |  |  |  | less sensitive | 
